Values quoted from earlier work, collected in patent US7993390B2, “Implantable or insertable medical device resistant to microbial growth and biofilm formation” (Boston Scientific Scimed, Inc., priority 2002, dated 2011).

System: most gram positive and gram negative aerobic and anaerobic bacteria, some yeast and fungi
Conditions: most organisms tested

For `Oc1cc(Cl)ccc1Oc1ccc(Cl)cc1Cl` [triclosan], the MIC is given as < 0.3 ppm.
